Measured values published in paper PMC10557102 (Pharmacology Research & Perspectives, 2023).
Like-named read-outs stand apart in the source and are kept apart here.

Tests used:
human OX1R = conditions: OX1R vs OX2R; cited from earlier work
CYP3A4 [1] = target: T1, CYP3A4 (Homo sapiens, UniProt P08684); conditions: cited from earlier work
CYP3A4 [2] = target: T1, CYP3A4; conditions: in man; cited from earlier work
CYP3A4 [3] = target: T1, CYP3A4; assay: Covalent binding; format: in vitro ADME
CYP3A4 [4] = target: T1, CYP3A4; assay: Cocktail DDI study: PK of midazolam and 1-OH midazolam with/without nivasorexant
CYP2C8 = target: T2, CYP2C8 (Homo sapiens, UniProt P10632); assay: Competitive; format: in vitro ADME
T2 sequence (P10632 1-490): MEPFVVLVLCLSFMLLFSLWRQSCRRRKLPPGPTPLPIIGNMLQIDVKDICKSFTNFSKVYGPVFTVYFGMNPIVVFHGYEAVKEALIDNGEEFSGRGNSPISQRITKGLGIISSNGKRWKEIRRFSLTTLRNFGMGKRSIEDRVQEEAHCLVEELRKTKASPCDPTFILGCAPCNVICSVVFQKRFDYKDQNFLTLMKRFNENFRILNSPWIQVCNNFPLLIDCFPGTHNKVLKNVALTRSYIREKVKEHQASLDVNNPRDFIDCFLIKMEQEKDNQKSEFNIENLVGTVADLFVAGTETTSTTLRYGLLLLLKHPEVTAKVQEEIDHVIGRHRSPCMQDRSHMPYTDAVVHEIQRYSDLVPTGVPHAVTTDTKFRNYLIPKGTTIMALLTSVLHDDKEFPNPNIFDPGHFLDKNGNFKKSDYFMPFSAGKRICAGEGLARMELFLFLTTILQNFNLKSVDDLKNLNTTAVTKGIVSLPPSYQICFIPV

[5] = Plasma pharmacokinetics of nivasorexant 100 mg b.i.d. in healthy subjects; conditions: for unbound peak concentration: corrected for molecular weight and f u,p 0.01
CYP2C19 [6] = target: T3, CYP2C19 (Homo sapiens, UniProt P33261); assay: Covalent binding; format: in vitro ADME; conditions: data not shown
T3 sequence (P33261 whole entry): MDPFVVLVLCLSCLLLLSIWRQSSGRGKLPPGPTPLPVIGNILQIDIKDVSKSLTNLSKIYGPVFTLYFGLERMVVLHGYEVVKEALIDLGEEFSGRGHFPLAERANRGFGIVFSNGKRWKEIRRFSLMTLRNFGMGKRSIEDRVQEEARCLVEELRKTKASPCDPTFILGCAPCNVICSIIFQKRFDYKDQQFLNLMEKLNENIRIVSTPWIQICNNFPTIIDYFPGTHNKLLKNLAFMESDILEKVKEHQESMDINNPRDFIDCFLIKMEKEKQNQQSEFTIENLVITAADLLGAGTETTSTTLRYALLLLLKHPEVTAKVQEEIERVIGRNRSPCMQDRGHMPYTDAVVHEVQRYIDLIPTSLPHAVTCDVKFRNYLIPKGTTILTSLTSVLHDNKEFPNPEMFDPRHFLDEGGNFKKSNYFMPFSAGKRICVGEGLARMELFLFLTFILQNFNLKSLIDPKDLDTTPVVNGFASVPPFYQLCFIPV

healthy subjects = assay: Safety and tolerability in the clinical study
CYP2C19 [7] = target: T3, CYP2C19; assay: in vitro; format: in vitro ADME
CYP2C9 = CYP2C9 (Homo sapiens, UniProt P11712); assay: Covalent binding; format: in vitro ADME
Chain of CYP2C9 (P11712 whole entry): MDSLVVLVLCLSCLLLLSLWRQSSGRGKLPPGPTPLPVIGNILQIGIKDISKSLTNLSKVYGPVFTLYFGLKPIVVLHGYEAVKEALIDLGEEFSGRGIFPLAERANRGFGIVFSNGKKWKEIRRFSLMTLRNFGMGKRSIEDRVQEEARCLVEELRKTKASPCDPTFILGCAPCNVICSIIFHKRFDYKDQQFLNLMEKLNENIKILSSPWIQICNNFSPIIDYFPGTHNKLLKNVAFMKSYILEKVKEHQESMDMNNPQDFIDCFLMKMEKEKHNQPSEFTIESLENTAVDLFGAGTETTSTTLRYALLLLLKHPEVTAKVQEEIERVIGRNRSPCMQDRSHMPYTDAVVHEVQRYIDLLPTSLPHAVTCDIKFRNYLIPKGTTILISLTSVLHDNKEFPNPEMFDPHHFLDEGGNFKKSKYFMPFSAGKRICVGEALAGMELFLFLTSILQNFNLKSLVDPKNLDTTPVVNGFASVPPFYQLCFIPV

CYP2C19 [8] = target: T3, CYP2C19; assay: biochemical; format: in vitro ADME
[9] = cited from earlier work
CYP2C19 [10] = target: T3, CYP2C19
CYP3A4 [11] = target: T1, CYP3A4; assay: Time-dependent; format: in vitro ADME; conditions: for IC50 shift: 30 min pre‐incubation with/without NADPH
[12] = after 8 days / repeated 100 mg b.i.d., steady state

T1 sequence (P08684 whole entry): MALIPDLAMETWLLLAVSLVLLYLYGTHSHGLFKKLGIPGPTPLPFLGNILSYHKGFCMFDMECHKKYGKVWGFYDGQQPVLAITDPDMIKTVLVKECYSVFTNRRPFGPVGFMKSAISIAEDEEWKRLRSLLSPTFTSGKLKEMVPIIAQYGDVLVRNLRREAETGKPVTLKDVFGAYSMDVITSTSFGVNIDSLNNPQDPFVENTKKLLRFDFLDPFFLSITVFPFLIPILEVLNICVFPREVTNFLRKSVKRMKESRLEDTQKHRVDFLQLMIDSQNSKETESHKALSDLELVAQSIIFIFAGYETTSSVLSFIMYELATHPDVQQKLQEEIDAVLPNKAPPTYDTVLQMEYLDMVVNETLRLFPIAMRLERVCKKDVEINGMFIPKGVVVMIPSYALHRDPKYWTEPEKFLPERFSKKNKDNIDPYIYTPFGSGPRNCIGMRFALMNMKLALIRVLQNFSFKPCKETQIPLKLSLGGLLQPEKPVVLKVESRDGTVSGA

Cc1ccc(C(=O)N2CCOC[C@H]2Cc2cccc(-n3nccn3)c2)c(-n2nccn2)c1 [nivasorexant]
higher potency at human OX1R than at human OX2R (human OX1R): approximately 60 fold | time to steady‐state conditions (CYP3A4 [1]; 200 mg b.i.d. nivasorexant): 4 to 5 days | CYP3A4 inhibitor classification (CYP3A4 [1]; after b.i.d. administration of 200 mg for 10 days): moderate (≥ 2‐ to <5‐fold) | extent of microsomal metabolism dependent on CYP3A4 (CYP3A4 [2]): approximately 90% | covalent binding (in words) (CYP3A4 [3]): covalent binding | CYP3A4 inhibitor classification according to regulatory guidance (CYP3A4 [4]; after 1 day of 100 mg b.i.d.): weak (≥1.25‐ to <2‐fold) | CYP3A4 inhibitor classification according to regulatory guidance (CYP3A4 [4]; [12]): moderate (≥ 2‐ to <5‐fold) | IC50 (CYP2C8): 25 µM | time to steady‐state trough concentrations ([5]; 100 mg b.i.d.): 3 to 4 days | accumulation index (AIX) ([5]; AUCτ Day 15 / AUCτ Day 8, 8 days of 100 mg b.i.d.): 1.8 | unbound peak concentration ([5]; Day 8): 16 nM | unbound peak concentration ([5]; Day 15): 29 nM | AUC ([5]; both, human, plasma, oral, AUCτ, Trt D, Day 15, repeated 100 mg b.i.d., geometric mean (95% CI)): 8560 ng·h/mL | Cmax ([5]; both, human, plasma, oral, C max, Trt D, Day 15, repeated 100 mg b.i.d., steady state, geometric mean (95% CI)): 1250 ng/mL | t max ([5]; both, human, plasma, oral, t max, Trt D, Day 15, repeated 100 mg b.i.d., median (range)): 2 h | covalent binding (in words) (CYP2C19 [6]): covalently binds | safety and tolerability (in words) (healthy subjects; Day 1 to Day 15, healthy subjects): safe and well tolerated | somnolence, subjects (%) (healthy subjects; Treatment B: cocktail + initial 100 mg nivasorexant, Day 8): 1 (4.5%) subjects (%) | somnolence, subjects (%) (healthy subjects; Treatment C: nivasorexant 100 mg b.i.d. alone, Day 9–14): 2 (9.1%) subjects (%) | somnolence, subjects (%) (healthy subjects; Treatment D: cocktail + nivasorexant at steady state, Day 15): 5 (23.8%) subjects (%) | IC50 shift at 30 min (CYP2C19 [7]; human, recombinant enzyme): 67 | K I (inhibition constant of the CYP enzyme inactivation) (CYP2C19 [7]; recombinant CYP2C19): 4.2 µM | k inact (rate of enzyme inactivation) (CYP2C19 [7]; recombinant CYP2C19): 0.079 min⁻¹ | covalent binding (in words) (CYP2C9): covalent binding | IC50 (CYP2C19 [8]): 1.6 µM | apparent mean terminal half‐life (t ½) ([9]; across dose levels, healthy subjects): 3.3 to 6.5 h | dose proportionality of AUCτ ([9]; multiple oral administration): dose proportional | dose proportionality of C max ([9]; multiple oral administration): less than dose proportional | CYP2C19 inhibitor classification according to regulatory guidance (CYP2C19 [10]; after 1 day of 100 mg b.i.d.): moderate (≥ 2‐ to <5‐fold) | CYP2C19 inhibitor classification according to regulatory guidance (CYP2C19 [10]; [12]): strong (≥5‐fold) | IC50 shift (CYP3A4 [11]; midazolam 1′‐hydroxylation): none | IC50 shift (CYP3A4 [11]; testosterone 6β‐hydroxylation): none | effect of pre‐incubation on CYP3A4 activity (in words, probe not stated) (CYP3A4 [11]; time‐dependent inhibition assay): no pre‐incubation effect
